Like-named read-outs stand apart in the source and are kept apart here.
Key:
human CB2 = biological target: T1, human CB2 (Homo sapiens, UniProt P34972); assay: CB2 binding, 3H-CP 55,940 displacement in CHO-hCB2 membranes; conditions: 0.2 nM 3H-CP 55,940
T1 construct: expressed in transfected cells; host or cells: CHO cells stably transformed with human CB2
Experimental: (§1) Membrane preparations were prepared from mouse brain to examine CB1 binding. For CB2 binding, membrane preparations were prepared from CHO cells stably transformed with human CB2.

CB1 receptors [1] = biological target: T2, CB1 receptors (Mus musculus, UniProt P47746); assay type: biochemical
T2 construct: from tissue; host or cells: mouse brain membranes

[2] = tested on: CLP or Control (Sham) mice; assay: Renal arterial blood flow by Doppler flow probe; assay type: in vivo, mouse; conditions: CPL-treated mice
Source text: Under isoflurane anesthesia, the right kidney was exposed by flank incision and the renal artery and vein were carefully dissected from surrounding tissue with Dumont-5 forceps. The renal artery was isolated from the vein and a Transonic Systems (Ithaca, N.Y.) 0.5 PSL renal artery Doppler flow probe was positioned around the renal artery. The probe was calibrated in water using the zero and scale settings on the TS420 flowmeter (Transonic Systems). […] Body temperature was maintained at 36 to 37° C. with a heating lamp. Data were expressed in ml/min/g kidney weight.
Renal blood flow was measured essentially as described above in Example 10 following CPL surgery or control treatment (no surgery). CPL-treated mice were administered 10 mg/kg of resveratrol, 2.5 mg/kg of resveratrol-3-sulfate, or vehicle. […] In fact, resveratrol-3-sulfate produced the same degree of reversal at 25% of the dose of resveratrol.

human UGT1A1 = biological target: T3, human UGT1A1 (Homo sapiens, UniProt P22309); assay: Glucuronidation by recombinant human UGT1A1 (activity and kinetic constants)
T3 sequence (P22309 26-533): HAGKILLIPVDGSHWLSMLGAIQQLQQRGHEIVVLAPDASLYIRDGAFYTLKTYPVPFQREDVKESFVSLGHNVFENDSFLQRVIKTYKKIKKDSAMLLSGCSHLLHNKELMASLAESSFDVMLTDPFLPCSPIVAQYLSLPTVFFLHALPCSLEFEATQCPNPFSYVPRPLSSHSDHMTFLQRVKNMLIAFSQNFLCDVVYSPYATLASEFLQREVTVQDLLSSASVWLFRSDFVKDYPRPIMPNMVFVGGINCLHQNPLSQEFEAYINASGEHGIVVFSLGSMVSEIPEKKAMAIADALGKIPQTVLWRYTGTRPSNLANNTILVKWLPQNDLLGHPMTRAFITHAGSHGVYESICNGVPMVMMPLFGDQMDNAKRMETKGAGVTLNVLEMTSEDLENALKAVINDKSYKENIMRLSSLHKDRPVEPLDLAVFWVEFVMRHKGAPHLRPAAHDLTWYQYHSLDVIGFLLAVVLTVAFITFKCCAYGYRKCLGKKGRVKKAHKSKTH
Experimental: (§2) Eight human recombinant UGT1A isoforms (UGT1A1, 1A3, 1A4, 1A6, 1A7, 1A8, 1A9, and 1A10; 5 μg) expressed as His-tag proteins in baculovirus-infected Sf9 insect cells and human liver microsomes (from one donor; HL2; 50 μg) and human intestinal microsomes (from two donors; HI36 and HI41; 50 μg) were evaluated for their ability to glucuronidate these four compounds. The concentrations of the substrate and co-substrate (i.e., UDP-GlcUA) were 250 μM and 4 mM, respectively. Glucuronidation products were analyzed by HPLC and LCMS/MS.
(§3) The kinetic constants of the glucuronidation reactions using recombinant human UGT1A1 and UGT1A10 were determined by measuring the enzyme activity in the presence of increasing concentrations of substrate (see FIG. 2).

CB1 receptors [3] = assay type: biochemical, mouse; conditions: 10 μM compound, 30 min at 30° C.
human UGT1A10 = biological target: T4, human UGT1A10 (Homo sapiens, UniProt Q9HAW8); assay: Glucuronidation by recombinant human UGT1A10 (activity and kinetic constants)
T4 sequence (Q9HAW8 26-530): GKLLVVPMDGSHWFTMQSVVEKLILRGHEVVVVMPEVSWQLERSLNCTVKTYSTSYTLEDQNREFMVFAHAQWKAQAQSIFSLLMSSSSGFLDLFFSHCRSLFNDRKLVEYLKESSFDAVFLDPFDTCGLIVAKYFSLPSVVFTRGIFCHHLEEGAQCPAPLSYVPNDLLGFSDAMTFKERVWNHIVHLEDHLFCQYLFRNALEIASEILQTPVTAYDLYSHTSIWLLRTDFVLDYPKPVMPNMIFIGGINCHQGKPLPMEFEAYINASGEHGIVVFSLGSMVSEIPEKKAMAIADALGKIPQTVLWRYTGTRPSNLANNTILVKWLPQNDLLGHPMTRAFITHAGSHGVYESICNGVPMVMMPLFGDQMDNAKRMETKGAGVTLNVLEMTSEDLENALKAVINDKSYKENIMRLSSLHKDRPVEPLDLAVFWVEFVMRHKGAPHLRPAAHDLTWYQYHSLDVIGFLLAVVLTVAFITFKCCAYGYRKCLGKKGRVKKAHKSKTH
Experimental: as §2, §3

[4] = tested on: human intestinal microsomes; assay: Glucuronidation by human intestinal microsomes; assay type: in vitro ADME; conditions: substrate 250 μM, UDP-GlcUA 4 mM
Experimental: Glucuronidation products were analyzed by HPLC and LCMS/MS.

CB1 receptors [5] = biological target: T2, CB1 receptors; assay: CB1 binding, 3H-CP 55,940 displacement in mouse brain membranes; conditions: isoprenyl group and additional hydroxyl group
Experimental: as §1

T1 sequence (P34972 whole entry): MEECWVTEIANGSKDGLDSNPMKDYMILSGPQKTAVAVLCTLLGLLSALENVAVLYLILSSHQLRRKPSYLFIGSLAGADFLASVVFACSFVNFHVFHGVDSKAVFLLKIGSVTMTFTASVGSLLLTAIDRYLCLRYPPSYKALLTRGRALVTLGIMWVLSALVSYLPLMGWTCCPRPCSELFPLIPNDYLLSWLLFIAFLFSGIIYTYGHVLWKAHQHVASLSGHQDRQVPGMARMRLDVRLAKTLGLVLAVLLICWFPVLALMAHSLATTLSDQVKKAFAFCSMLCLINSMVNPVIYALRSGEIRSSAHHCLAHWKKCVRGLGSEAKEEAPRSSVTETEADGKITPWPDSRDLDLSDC
T2 sequence (P47746 whole entry): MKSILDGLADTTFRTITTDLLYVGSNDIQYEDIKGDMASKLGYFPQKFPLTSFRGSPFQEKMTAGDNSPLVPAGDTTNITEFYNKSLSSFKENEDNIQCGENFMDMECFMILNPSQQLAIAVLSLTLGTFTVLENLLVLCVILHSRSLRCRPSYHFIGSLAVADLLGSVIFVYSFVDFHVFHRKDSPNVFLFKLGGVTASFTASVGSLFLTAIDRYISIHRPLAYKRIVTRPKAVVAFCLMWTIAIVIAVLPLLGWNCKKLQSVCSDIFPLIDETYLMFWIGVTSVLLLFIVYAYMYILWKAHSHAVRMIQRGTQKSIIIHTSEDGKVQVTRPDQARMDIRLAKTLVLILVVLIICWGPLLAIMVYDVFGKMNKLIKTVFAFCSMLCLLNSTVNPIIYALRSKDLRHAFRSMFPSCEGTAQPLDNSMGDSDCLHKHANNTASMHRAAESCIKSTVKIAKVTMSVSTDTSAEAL

With O=C(O)[C@H]1O[C@@H](Oc2cc(O)cc(/C=C/c3ccc(O)c(O)c3)c2)[C@H](O)[C@@H](O)[C@@H]1O [3-Gluc-tPice] the Ki (human CB2) was > 100000 nM.

In the case of O=C(O)[C@H]1O[C@@H](Oc2ccc(/C=C/c3cc(O)cc(O)c3)cc2)[C@H](O)[C@@H](O)[C@@H]1O [4′-Gluc-rRes], the Ki (human CB2) is reported as > 100000 nM.

CCCCCCC(C)(C)c1ccc([C@@H]2C[C@H](O)CC[C@H]2CCCO)c(O)c1 [CP-55,940] was tested, and the G-protein activity (CB1 receptors [1]; 1 μM compound, 30 min at 30° C.) was “stimulated”, the “maximal response produced by CP-55,940” value (CB1 receptors [1]; CP-55,940 alone) was 0.34±0.03 pmole/mg protein and the EC50 (CB1 receptors [1]; CP-55,940 alone, read-out: ED50 required to activate G-proteins) was 4.3 nM.

In the case of O=S(=O)(O)Oc1cc(O)cc(C=Cc2ccc(O)cc2)c1 [resveratrol-3-sulfate], the “dose producing the same degree of reversal, relative to resveratrol” value [2] is reported as 25 % of the dose of resveratrol and the renal blood flow ([2]; 2.5 mg/kg (Example 15)) is reported as “increased blood flow”.

CC(C)/C=C/c1c(O)cc(/C=C/c2ccc(O)cc2)cc1O [tA3, trans-arachidin-3] was tested, and the Kinetics (human UGT1A1; product 3-glucuronide (3G)) was “M-M”, the Kinetics (human UGT1A1; product 4′-glucuronide (4′G)) was “M-M” and the EC50 (CB1 receptors [1]; in the presence of 30 μM tA-3, read-out: ED50 of CP-55,940 required to activate G-proteins) was 127 nM. The “basal G-protein activity” value (CB1 receptors [3]) was “little effect”, the “kinetics of 4′-O-Gluc formation by UGT1A10” value (human UGT1A10) was “substrate inhibition kinetics” and the Kinetics (human UGT1A10; product 4′-glucuronide (4′G)) was “USI”.

For Oc1cc(O)cc(/C=C/c2ccc(O)c(O)c2)c1 [tPice, trans-piceatannol], the Ki (human CB2) was 114000 ± 7800 nM, the Kinetics (human UGT1A1; product 3-glucuronide (3G)) was “M-M” and the Kinetics (human UGT1A1; product 4′-glucuronide (4′G)) was “M-M”. For the same compound, the “basal G-protein activity” value (CB1 receptors [3]) was “markedly reduced”, the Kinetics (human UGT1A10; product 3-glucuronide (3G)) was “M-M” and the Kinetics (human UGT1A10; product 4′-glucuronide (4′G)) was “Hill”. The “n (Hill coeff)” value (human UGT1A10; product 4′-glucuronide (4′G)) was 1.7.

For trans-arachidin-1 [tA1], the “production of 3G glucuronide by HIM” value [4] was “large amount”, the “enhancement of binding affinity for CB1” value (CB1 receptors [5]) was 2 fold and the “maximal response produced by CP-55,940” value (CB1 receptors [1]; in the presence of 10 μM tA-1) was 0.22±0.04 pmole/mg protein. The EC50 (CB1 receptors [1]; in the presence of 10 μM tA-1, read-out: ED50 of CP-55,940 required to activate G-proteins) was 28 nM, the “basal G-protein activity” value (CB1 receptors [3]) was “markedly reduced” and the “kinetics of 4′-O-Gluc formation by UGT1A10” value (human UGT1A10) was “substrate inhibition kinetics”. For the same compound, the Kinetics (human UGT1A10; product 4′-glucuronide (4′G)) was “USI”.

Reference: US9044491B2, “Method for improving blood flow using stilbenoid derivatives” (The Board of Trustees of the University of Arkansas, priority 2010, dated 2015)
